# Experimental data from ChEMBL document CHEMBL1201862, “PubChem BioAssay data set” (2004).
#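 In this assay, cells in 96-well plates receive the compound at five concentrations for 48 hours. Endpoints are linearly interpolated between the surrounding concentrations. The concentration for 50% growth inhibition is given as GI50.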 Active and inactive are the calls of the source. Rule as the data show it: active = GI50 up to about 1.1 µM and inactive = higher.
# Assays:
# Test in all cases: NCI tumour cell line growth inhibition, 48 h
# CAKI-1 = tested on: CAKI-1
# SK-MEL-2 = tested on: SK-MEL-2
# K562 = tested on: K562
# HCT-116 = tested on: HCT-116
# HT-29 = tested on: HT-29
# BT-549 = tested on: BT-549
# OVCAR-5 = tested on: OVCAR-5
# HCT-15 = tested on: HCT-15
# NCI-H522 = tested on: NCI-H522
# NCI-H226 = tested on: NCI-H226
# DU-145 = tested on: DU-145
# A549 = tested on: A549
# NCI-H460 = tested on: NCI-H460
# NCI-H23 = tested on: NCI-H23
# RXF 393 = tested on: RXF 393
# MCF7 = tested on: MCF7
# SF-539 = tested on: SF-539
# HCC 2998 = tested on: HCC 2998
# SF-295 = tested on: SF-295
# HOP-92 = tested on: HOP-92
Compound,GI50 (CAKI-1),GI50 (SK-MEL-2),GI50 (K562),GI50 (HCT-116),GI50 (HT-29),GI50 (BT-549),GI50 (OVCAR-5),GI50 (HCT-15),GI50 (NCI-H522),GI50 (NCI-H226),GI50 (DU-145),GI50 (A549),GI50 (NCI-H460),GI50 (NCI-H23),GI50 (RXF 393),GI50 (MCF7),GI50 (SF-539),GI50 (HCC 2998),GI50 (SF-295),GI50 (HOP-92)
COc1ccccc1-n1c(=O)n(C)c(=O)n1C(C)(C)C,> 100 µM (inactive),> 100 µM (inactive),> 100 µM (inactive),> 100 µM (inactive),> 100 µM (inactive),> 100 µM (inactive),> 100 µM (inactive),> 100 µM,29.3 µM (inactive),> 100 µM (inactive),> 100 µM (inactive),> 100 µM (inactive),> 100 µM (inactive),> 100 µM (inactive),> 100 µM (inactive),> 100 µM (inactive),> 100 µM (inactive),0.288 µM (active),,
Cc1cc(O)c(C(c2cccnc2)c2c(O)cc(C)[nH]c2=O)c(=O)[nH]1,> 100 µM (inactive),,> 100 µM (inactive),> 100 µM (inactive),> 100 µM (inactive),> 100 µM (inactive),> 100 µM (inactive),> 100 µM,> 100 µM (inactive),,> 100 µM (inactive),> 100 µM (inactive),> 100 µM (inactive),> 100 µM (inactive),> 100 µM (inactive),> 100 µM (inactive),,,> 100 µM (inactive),
O=C(O)Cc1cccc2c1OC(c1ccccc1)C(C(=O)c1ccccc1)C2=O (stereo not drawn),42.1 µM (inactive),,32.7 µM (inactive),33 µM (inactive),> 10 µM (inactive),> 100 µM (inactive),> 100 µM (inactive),98.4 µM,43.2 µM (inactive),> 100 µM (inactive),69 µM (inactive),36.3 µM (inactive),30.5 µM (inactive),29.5 µM (inactive),> 100 µM (inactive),34.6 µM (inactive),51.5 µM (inactive),20.4 µM (inactive),37.4 µM (inactive),
CC(C)CC(NC(=O)OCc1ccccc1)C(=O)NCCCCC(N)C(=O)NC(CCCCNC(=O)C(CC(C)C)NC(=O)OCc1ccccc1)C(=O)NC(CCCCNC(=O)C(CC(C)C)NC(=O)OCc1ccccc1)C(=O)NC(CCCCNC(=O)C(CC(C)C)NC(=O)OCc1ccccc1)C(=O)NC(CCCCNC(=O)C(CC(C)C)NC(=O)OCc1ccccc1)C(=O)NC(CCCCNC(=O)C(CC(C)C)NC(=O)OCc1ccccc1)C(=O)O (stereo not drawn),,> 100 µM (inactive),> 100 µM (inactive),> 100 µM (inactive),> 100 µM (inactive),> 100 µM (inactive),> 100 µM (inactive),> 100 µM,> 100 µM (inactive),> 100 µM (inactive),> 100 µM (inactive),> 100 µM (inactive),> 100 µM (inactive),> 100 µM (inactive),,> 100 µM (inactive),,> 100 µM (inactive),,
Cn1c(=O)c2nc(CCNC(=O)c3ccccc3)[nH]c2n(C)c1=O,> 100 µM (inactive),> 100 µM (inactive),> 100 µM (inactive),> 100 µM (inactive),> 100 µM (inactive),> 100 µM (inactive),> 100 µM (inactive),> 100 µM,> 100 µM (inactive),> 100 µM (inactive),> 100 µM (inactive),> 100 µM (inactive),> 100 µM (inactive),> 100 µM (inactive),> 100 µM (inactive),,,> 100 µM (inactive),> 100 µM (inactive),> 100 µM (inactive)
NC(=O)C[S+]([O-])CC(N)C(=O)O (stereo not drawn),> 100 µM (inactive),> 100 µM (inactive),> 100 µM (inactive),> 100 µM (inactive),> 100 µM (inactive),> 100 µM (inactive),> 100 µM (inactive),> 100 µM,> 100 µM (inactive),> 100 µM (inactive),> 100 µM (inactive),> 100 µM (inactive),> 100 µM (inactive),> 100 µM (inactive),> 100 µM (inactive),,,> 100 µM (inactive),> 100 µM (inactive),> 100 µM (inactive)
COc1ccc(/C=C2\CCC(C)/C(=C\c3ccc(OC)c(OC)c3)C2=O)cc1OC (stereo not drawn),5.82 µM (inactive),3.82 µM (inactive),3.36 µM (inactive),3.78 µM (inactive),4.38 µM (inactive),4.6 µM (inactive),3.59 µM (inactive),5.37 µM,,4.65 µM (inactive),3.73 µM (inactive),,,3.94 µM (inactive),5.06 µM (inactive),4.85 µM (inactive),3.42 µM (inactive),,5.36 µM (inactive),
CC1CC(NC2CCCCC2)=Nc2ccccc2N1Cc1ccccc1 (stereo not drawn),5.46 µM (inactive),11.2 µM (inactive),1.73 µM (inactive),4.71 µM (inactive),2.82 µM (inactive),6.05 µM (inactive),5.09 µM (inactive),5.33 µM,3.03 µM (inactive),12.7 µM (inactive),4.66 µM (inactive),4.43 µM (inactive),3.37 µM (inactive),7.33 µM (inactive),2.36 µM (inactive),3.66 µM (inactive),5.62 µM (inactive),2.31 µM (inactive),6.03 µM (inactive),
Cc1cc(S(=O)(=O)Nc2nc3cscc3c(=O)n2N)c(S)cc1Cl,> 100 µM (inactive),33.4 µM (inactive),60.5 µM (inactive),36.7 µM (inactive),39.6 µM (inactive),55.1 µM (inactive),26.5 µM (inactive),35.2 µM,32.8 µM (inactive),8.15 µM (inactive),40.3 µM (inactive),28.2 µM (inactive),28 µM (inactive),55.2 µM (inactive),,61.5 µM (inactive),34.7 µM (inactive),47.5 µM (inactive),37.9 µM (inactive),
c1cc(CN2CCNCCNCCNCC2)cc(CN2CCNCCNCCNCC2)c1,,> 100 µM (inactive),> 100 µM (inactive),> 100 µM (inactive),> 100 µM (inactive),> 100 µM (inactive),> 100 µM (inactive),> 10 µM,,> 100 µM (inactive),> 100 µM (inactive),> 100 µM (inactive),> 100 µM (inactive),> 100 µM (inactive),,> 100 µM (inactive),> 100 µM (inactive),> 100 µM (inactive),> 100 µM (inactive),
c1cc(C2N3CCCN2CC3)ccn1 (stereo not drawn),> 100 µM (inactive),> 100 µM (inactive),28.2 µM (inactive),36.9 µM (inactive),> 100 µM (inactive),> 100 µM (inactive),> 100 µM (inactive),> 100 µM,4.85 µM (inactive),> 100 µM (inactive),> 100 µM (inactive),> 100 µM (inactive),83.6 µM (inactive),68.2 µM (inactive),> 100 µM (inactive),37.8 µM (inactive),,> 100 µM (inactive),> 100 µM (inactive),
